Source: ChEMBL document CHEMBL5244238, “Targeting mTOR for fighting diseases: A revisited review of mTOR inhibitors” (Eur J Med Chem, 2020)
One block for each compound: values may come before it.

How the values were obtained:
[1] = target: Serine/threonine-protein kinase mTOR (Homo sapiens, UniProt P42345)
Description: Inhibition of mTOR (unknown origin)

clinical = details: human
Homo sapiens = organism: Homo sapiens; assay: Selectivity index, ratio of IC50 for PI3Kalpha (unknown origin) to IC50 for mTOR (unknown origin); type: functional
MIA PaCa-2 = assay: cells; details: Homo sapiens
Description: Antiproliferative activity against human MIA PaCa-2 cells

CAKI-1 = assay: cells; details: Homo sapiens
Description: Antiproliferative activity against human CAKI-1 cells

HeLa = assay: cells; details: Homo sapiens
Description: Antiproliferative activity against human HeLa cells

A549 = assay: cells; details: Homo sapiens
Description: Antiproliferative activity against human A549 cells

PC-3 = assay: cells; details: Homo sapiens
Description: Antiproliferative activity against human PC-3 cells

MCF7 = assay: Antiproliferative activity against human MCF7 cells; type: functional, cell-based

IC50 [1]: 0.005 µM
Compound: CO[C@H]1C[C@@H]2CC[C@@H](C)[C@@](O)(O2)C(=O)C(=O)N2CCCC[C@H]2C(=O)O[C@H]([C@H](C)C[C@@H]2CC[C@@H](OCCO)[C@H](OC)C2)CC(=O)[C@H](C)/C=C(\C)[C@@H](O)[C@@H](OC)C(=O)[C@H](C)C[C@H](C)/C=C/C=C/C=C/1C [EVEROLIMUS]

half-life (clinical): 40 h
Compound: CO[C@H]1C[C@@H]2CC[C@@H](C)[C@@](O)(O2)C(=O)C(=O)N2CCCC[C@H]2C(=O)O[C@H]([C@H](C)C[C@@H]2CC[C@@H](O)[C@H](OC)C2)CC(=O)[C@H](C)/C=C(\C)[C@@H](O)[C@@H](OC)C(=O)[C@H](C)C[C@H](C)/C=C/C=C/C=C/1C [SIROLIMUS]

IC50 [1]: 0.095 µM
Compound: O=C(c1ccc(C(=O)C(F)(F)F)cc1)N1CCOc2ccc(-c3cnc4ccccc4c3)cc2C1
Ratio IC50 (Homo sapiens): 4

IC50 [1]: < 1 µM
Compound: C[C@H]1COCCN1c1nc(-c2ccc(NC(=O)NCC(F)F)cc2)cc(-c2cc(F)ccc2S(C)(=O)=O)n1

IC50 [1]: 0.016 µM
Compound: COc1ccc(C2Cc3c(C)nc(N)nc3N([C@H]3CC[C@H](OCCO)CC3)C2=O)cn1 (some centres undefined)

IC50 (MIA PaCa-2): 24 µM
IC50 (CAKI-1): 17 µM
IC50 (HeLa): 19 µM
IC50 (A549): 14 µM
IC50 (PC-3): 38 µM
Compound: CCCc1nn(C)c2c(=O)[nH]c(-c3cc(OC)cc(OC)c3)nc12

IC50 [1]: < 1 µM
Compound: CCOC(=O)N1Cc2nc(-c3ccc(NC(=O)NC4CC4)cc3)nc(N3CCOC[C@@H]3C)c2C1

IC50 (MCF7): 2 µM
IC50 (A549): 8 µM
Compound: CCc1ccc(C(=O)c2cnc3cc4c(cc3c2N2CCC(C(N)=O)CC2)OCCO4)cc1
